Values quoted from earlier work, collected in article PMC10146264, “Safety, Pharmacokinetic and Pharmacodynamic Evaluation of Teverelix for the Treatment of Hormone-Sensitive Advanced Prostate Cancer: Phase 2 Loading-Dose-Finding Studies” (Medicina, 2023).

Assays:
patients = test system: patients
From the text: In the United States, cardiovascular disease is the main cause of death for prostate cancer patients, and patients with prostate cancer have a higher risk of death from non-cancer causes than the general population. ADT is associated with a number of cardiometabolic side effects including decreased insulin sensitivity, changes in lipid profile, and an increased risk of thromboembolic and cerebrovascular events. The risk seems to be highest in elderly patients who have had recent cardiovascular events before starting ADT [27]. According to a Scientific Statement issued by the Am ...

[1] = test system: patients with prostate cancer; settings: in vivo

Compound | Major cardiovascular events, patients (patients; phase 3 randomized trial, within the first 12 months of treatment) [%] | Major cardiovascular events, HR [95% CI] GnRH antagonist vs GnRH agonist (patients; phase 3 trial relugolix vs leuprolide, first 12 months of treatment) | Incidence of injection-site reactions [1]
CONC(=O)Nc1ccc(-c2sc3c(c2CN(C)C)c(=O)n(-c2ccc(OC)nn2)c(=O)n3Cc2c(F)cccc2F)cc1 [relugolix] | 2.9 | 0.46 | 
Degarelix |  |  | ~ 40%
